These results are taken from patent US11648254B2 (Kumquat Biosciences Inc., priority 2021, dated 2023).

Like-named read-outs stand apart in the source and are kept apart here.

For one assay, the target named is SOS1 (Homo sapiens (Human), UniProt Q07889). Nature of the assay: Ras-SOS interaction assay (HTRF). In kind it is biochemical. (In general: TR-FRET usually uses a lanthanide donor and a delayed reading to cut background.)
In assay [1] the test system is MIA PaCa-2 cells (K-Ras G12C). Nature of the assay: Ras-SOS cellular growth inhibition assay (CellTiter-Glo, 3D). To be noted: Homo sapiens. In kind it is cell-based. A digest of the protocol: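 Growth read by CellTiter-Glo luminescence about 5 days after dosing with 3-fold dilutions (9 points), added one day post-seeding. Cells: MIA PaCa-2, 3D culture on ultra-low-attachment surface, medium DMEM/Ham's F12 plus 10% FCS and 2.5% horse serum; IC50 by four-parameter fit.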
(In ATP-based viability assays light output follows the ATP content of the culture.)

In assay [2] the test system is NCI-H1975 cells (EGFR T790M L858R). Nature of the assay: EGFR-SOS cellular inhibition assay (CellTiter-Glo, 3D). To be noted: Homo sapiens. In kind it is cell-based.
Setting [3] is: K-RasG13D utilized, read-out: IC50 inhibition of SOS.
[4] abbreviates: K-RasG13D, read-out: IC50 value against SOS1.
[5] abbreviates: MIA PaCa-2, 120 h, MIA PaCa-2, 3D proliferation, about 5 days, read-out: Bio-Cell-Prolif-3D (MiaPaca2 IC50).
[6] abbreviates: 120 h, NCI-H1975, 3D proliferation, about 5 days, read-out: Bio-Cell-Prolif-3D (H1975 IC50).
[7] abbreviates: MIA PaCa-2, MIA PaCa-2, read-out: IC50 in inhibiting MIA PaCa-2 cell growth.
[8] abbreviates: NCI-H1975, EGFR T790M L858R, read-out: IC50 in inhibiting growth of NCI-H1975 cell line.

SOS1, sequence (Q07889 564-1049): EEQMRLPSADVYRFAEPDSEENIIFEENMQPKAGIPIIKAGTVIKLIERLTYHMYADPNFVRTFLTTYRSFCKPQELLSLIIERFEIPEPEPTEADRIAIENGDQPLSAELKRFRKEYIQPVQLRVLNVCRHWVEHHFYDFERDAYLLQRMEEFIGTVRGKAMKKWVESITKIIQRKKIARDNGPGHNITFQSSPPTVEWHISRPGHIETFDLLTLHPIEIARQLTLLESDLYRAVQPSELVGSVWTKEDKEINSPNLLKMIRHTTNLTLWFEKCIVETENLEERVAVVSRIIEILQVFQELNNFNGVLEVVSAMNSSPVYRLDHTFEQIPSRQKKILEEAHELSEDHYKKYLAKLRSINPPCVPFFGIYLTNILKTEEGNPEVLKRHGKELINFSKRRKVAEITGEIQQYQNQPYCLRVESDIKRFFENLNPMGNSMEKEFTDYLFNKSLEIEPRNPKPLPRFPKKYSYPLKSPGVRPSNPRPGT

As for `Cc1nc(N[C@H](C)c2cccc(C(F)F)c2F)c2cc(C3CCN(C(C)C)CC3)c(OCCN(C)C)nc2n1` [Compound 369, (R)-N-(1-(3-(difluoromethyl)-2-fluorophenyl)ethyl)-7-(2-(dimethylamino)ethoxy)-6-(1-isopropylpiperidin-4-yl)-2-methylpyrido[2,3-d] pyrimidin-4-amine], the half-inhibitory concentration (IC50) at SOS1 (setting [3]) is under 100 nM; at SOS1 (setting [4]), under 50 nM; in assay [1] (setting [5]), 1000 to 10000 nM; in assay [2] (setting [6]) it was at most 1000 nM.

In the case of `COc1nc2nc(C)nc(N[C@H](C)c3cccc(C(F)(F)C4CCN(C(C)C)CC4)c3)c2cc1C1CCN(C(C)C)CC1` [Compound 420, (R)-N-(1-(3-(difluoro(1-isopropylpiperidin-4-yl)methyl)phenyl)ethyl)-6-(1-isopropylpiperidin-4-yl)-7-methoxy-2-methylpyrido[2,3-d] pyrimidin-4-amine], the concentration for half-maximal inhibition (IC50) on SOS1 (setting [3]) was under 100 nM; on SOS1 (setting [4]), under 50 nM; in assay [1] (setting [5]), at most 1000 nM; in assay [1] (setting [7]) it was under 500 nM; in assay [2] (setting [6]), at most 1000 nM; in assay [2] (setting [8]) it was under 500 nM.

`CCN1CCN(c2cc3c(N[C@H](C)c4cccc(C(F)F)c4F)nc(C)nc3nc2OC2COC2)CC1` [Compound 415, (R)-N-(1-(3-(difluoromethyl)-2-fluorophenyl)ethyl)-6-(4-ethylpiperazin-1-yl)-2-methyl-7-(oxetan-3-yloxy) pyrido[2,3-d]pyrimidin-4-amine]: the concentration for half-maximal inhibition (IC50) is under 100 nM on SOS1 (setting [3]); under 50 nM on SOS1 (setting [4]); at most 1000 nM in assay [1] (setting [5]); under 500 nM in assay [1] (setting [7]); at most 1000 nM in assay [2] (setting [6]); under 500 nM in assay [2] (setting [8]).

For `Cc1nc(N[C@H](C)c2cccc(C(F)F)c2F)c2cc(C3CCN(C(C)C)CC3)c(OC3CNC3)nc2n1` [Compound 340, (R)-7-(azetidin-3-yloxy)-N-(1-(3-(difluoromethyl)-2-fluorophenyl)ethyl)-6-(1-isopropylpiperidin-4-yl)-2-methylpyrido[2,3-d]pyrimidin-4-amine], the half-maximal inhibitory concentration (IC50) is under 100 nM on SOS1 (setting [3]), under 50 nM on SOS1 (setting [4]), 1000 to 10000 nM in assay [1] (setting [5]) and 1000 to 10000 nM in assay [2] (setting [6]).

As for `C[C@@H](Nc1ncnc2nc(Cl)c(N3CCS(=O)(=O)CC3)cc12)c1cccc(C(F)F)c1F` [Compound 261, (R)-4-(7-chloro-4-((1-(3-(difluoromethyl)-2-fluorophenyl)ethyl)amino)pyrido [2,3-d]pyrimidin-6-yl)thiomorpholine 1,1-dioxide], the IC50 is under 100 nM on SOS1 (setting [3]); under 50 nM on SOS1 (setting [4]); at most 1000 nM in assay [1] (setting [5]); under 500 nM in assay [1] (setting [7]); at most 1000 nM in assay [2] (setting [6]); under 500 nM in assay [2] (setting [8]).

Take `COc1nc2nc(CCN3CCC3)nc(N[C@H](C)c3cccc(C(F)(F)F)c3F)c2cc1C1(C#N)CC1` [Compound 217, (R)-1-(2-(2-(azetidin-1-yl)ethyl)-4-((1-(2-fluoro-3-(trifluoromethyl)phenyl)ethyl)amino)-7-methoxypyrido[2,3-d]pyrimidin-6-yl)cyclopropane-1-carbonitrile]: the concentration for half-maximal inhibition (IC50) is under 50 nM on SOS1 (setting [4]), at most 1000 nM in assay [1] (setting [5]), at most 1000 nM in assay [2] (setting [6]) and under 500 nM in assay [2] (setting [8]).

Consider `COCCOc1nc2nc(C)nc(N[C@H](C)c3cccc(C(F)F)c3F)c2cc1C1CCS(=O)(=O)CC1` [Compound 157, (R)-4-(4-((1-(3-(difluoromethyl)-2-fluorophenyl)ethyl)amino)-7-(2-methoxyethoxy)-2-methylpyrido[2,3-d]pyrimidin-6-yl)tetrahydro-2H-thiopyran 1,1-dioxide], for which the IC50 was under 100 nM on SOS1 (setting [3]); under 50 nM on SOS1 (setting [4]); at most 1000 nM in assay [1] (setting [5]); under 500 nM in assay [1] (setting [7]); at most 1000 nM in assay [2] (setting [6]); under 500 nM in assay [2] (setting [8]).

Take `Cc1nc(N[C@H](C)c2cccc(C(F)F)c2F)c2cc(C3CCS(=O)(=O)CC3)c(OC3CN(C)C3)nc2n1` [Compound 191, (R)-4-(4-((1-(3-(difluoromethyl)-2-fluorophenyl)ethyl)amino)-2-methyl-7-((1-methylazetidin-3-yl)oxy)pyrido[2,3-d]pyrimidin-6-yl)tetrahydro-2H-thiopyran 1,1-dioxide]: the concentration for half-maximal inhibition (IC50) on SOS1 (setting [3]) was under 100 nM; on SOS1 (setting [4]) it was under 50 nM; in assay [1] (setting [5]) it was 1000 to 10000 nM; in assay [2] (setting [6]), 1000 to 10000 nM.

With `COc1nc2nc(C)nc(N[C@H](C)c3cccc(C(F)(F)F)c3F)c2cc1C1CCN(C)CC1` [Compound 309, (R)-N-(1-(2-fluoro-3-(trifluoromethyl)phenyl)ethyl)-7-methoxy-2-methyl-6-(1-methylpiperidin-4-yl)pyrido[2,3-d]pyrimidin-4-amine], the IC50 is under 100 nM on SOS1 (setting [3]); under 50 nM at SOS1 (setting [4]); at most 1000 nM in assay [1] (setting [5]); at most 1000 nM in assay [2] (setting [6]); under 500 nM in assay [2] (setting [8]).

`Cc1nc(N[C@H](C)c2cccc(C(F)(F)F)c2C)c2cc(C3CCS(=O)(=O)CC3)c(Cl)nc2n1` [Compound 388, (R)-4-(7-chloro-2-methyl-4-((1-(2-methyl-3-(trifluoromethyl)phenyl)ethyl)amino)pyrido[2,3-d]pyrimidin-6-yl)tetrahydro-2H-thiopyran 1,1-dioxide]: the IC50 is under 100 nM at SOS1 (setting [3]); under 50 nM on SOS1 (setting [4]); at most 1000 nM in assay [1] (setting [5]); under 500 nM in assay [1] (setting [7]); at most 1000 nM in assay [2] (setting [6]); under 500 nM in assay [2] (setting [8]).

For `COc1nc2nc(C)nc(N[C@H](C)c3cccc(C(F)F)c3F)c2cc1S(=O)(=O)N1CCNCC1` [Compound 114, (R)-N-(1-(3-(difluoromethyl)-2-fluorophenyl)ethyl)-7-methoxy-2-methyl-6-(piperazin-1-ylsulfonyl)pyrido[2,3-d]pyrimidin-4-amine], the IC50 on SOS1 (setting [3]) is under 100 nM; at SOS1 (setting [4]), under 50 nM; in assay [1] (setting [5]) it was at most 1000 nM; in assay [2] (setting [6]), at most 1000 nM.

In the case of `Cc1nc(N[C@H](C)c2cccc(C(F)F)c2F)c2cc(C3CCS(=O)(=O)CC3)c(NC3COC3)nc2n1` [Compound 401, (R)-4-(4-((1-(3-(difluoromethyl)-2-fluorophenyl)ethyl)amino)-2-methyl-7-(oxetan-3-ylamino)pyrido[2,3-d]pyrimidin-6-yl)tetrahydro-2H-thiopyran 1,1-dioxide], the IC50 is under 100 nM on SOS1 (setting [3]), under 50 nM on SOS1 (setting [4]), 1000 to 10000 nM in assay [1] (setting [5]) and at most 1000 nM in assay [2] (setting [6]).

`Cc1nc(N[C@H](C)c2cccc(C(F)F)c2F)c2cc(N3CCS(=O)(=O)CC3)c(OC3COC3)nc2n1` [Compound 183, (R)-4-(4-((1-(3-(difluoromethyl)-2-fluorophenyl)ethyl)amino)-2-methyl-7-(oxetan-3-yloxy)pyrido[2,3-d]pyrimidin-6-yl)thiomorpholine 1,1-dioxide]: the concentration for half-maximal inhibition (IC50) at SOS1 (setting [3]) was under 100 nM; on SOS1 (setting [4]) it was under 50 nM; in assay [1] (setting [5]), 1000 to 10000 nM; in assay [2] (setting [6]), at most 1000 nM; in assay [2] (setting [8]) it was under 500 nM.

Turning to `CCN1CCN(c2cc3c(N[C@H](C)c4cccc(C(F)F)c4F)nc(C)nc3nc2OC)CC1` [Compound 115, (R)-N-(1-(3-(difluoromethyl)-2-fluorophenyl)ethyl)-6-(4-ethylpiperazin-1-yl)-7-methoxy-2-methylpyrido[2,3-d]pyrimidin-4-amine], the half-maximal inhibitory concentration (IC50) on SOS1 (setting [3]) was under 100 nM; at SOS1 (setting [4]) it was under 50 nM; in assay [1] (setting [5]), at most 1000 nM; in assay [1] (setting [7]), under 500 nM; in assay [2] (setting [6]), at most 1000 nM.

For `Cc1nc(N[C@H](C)c2cccc(C(F)F)c2F)c2cc(C3CCN(C)CC3)c(OC3CN(C)C3)nc2n1` [Compound 252, (R)-N-(1-(3-(difluoromethyl)-2-fluorophenyl)ethyl)-2-methyl-7-((1-methylazetidin-3-yl)oxy)-6-(1-methylpiperidin-4-yl)pyrido[2,3-d]pyrimidin-4-amine], the 50% inhibitory concentration (IC50) on SOS1 (setting [3]) is under 100 nM; on SOS1 (setting [4]) it was under 50 nM; in assay [1] (setting [5]) it was 1000 to 10000 nM; in assay [2] (setting [6]), at most 1000 nM.

Take `Cc1nc(N[C@H](C)c2cccc(C(F)(F)F)c2C)c2cc(C3CCN(C(C)C)CC3)c(Cl)nc2n1` [Compound 392, (R)-7-chloro-6-(1-isopropylpiperidin-4-yl)-2-methyl-N-(1-(2-methyl-3-(trifluoromethyl)phenyl)ethyl)pyrido [2,3-d]pyrimidin-4-amine]: the IC50 on SOS1 (setting [3]) is under 100 nM; on SOS1 (setting [4]) it was under 50 nM; in assay [1] (setting [5]), at most 1000 nM; in assay [1] (setting [7]) it was under 500 nM; in assay [2] (setting [6]) it was at most 1000 nM; in assay [2] (setting [8]) it was under 500 nM.

On to `Cc1nc(N[C@H](C)c2cccc(C(F)F)c2F)c2cc(C3CCS(=O)(=O)CC3)c(OC3COC3)nc2n1` [Compound 229, (R)-4-(4-((1-(3-(difluoromethyl)-2-fluorophenyl)ethyl)amino)-2-methyl-7-(oxetan-3-yloxy)pyrido[2,3-d]pyrimidin-6-yl)tetrahydro-2H-thiopyran 1,1-dioxide], for which the IC50 on SOS1 (setting [3]) is under 100 nM; at SOS1 (setting [4]), under 50 nM; in assay [1] (setting [5]) it was at most 1000 nM; in assay [2] (setting [6]) it was at most 1000 nM.

A word on the IC50: it is the midpoint of a concentration-inhibition curve.
